ChEMBL document CHEMBL1201862, “PubChem BioAssay data set” (2004)
Active and inactive are the calls of the source.

Key:
[1] = molecular target: Cytochrome P450 2C19 (Homo sapiens, UniProt P33261); test: Cytochrome panel assay with activity outcomes. Panel member name: p450-cyp2c19 Compounds with AC50 equal or less than 10 uM are considered active; assay type: functional; conditions: read-out: AC50
[2] = molecular target: Cytochrome P450 3A4 (Homo sapiens, UniProt P08684);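 also: CYP3A4 tested as one member of a cytochrome P450 panel screen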
[3] = molecular target: Cytochrome P450 2D6 (Homo sapiens, UniProt P10635);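 also: CYP2D6 member of a cytochrome P450 panel assay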
[4] = NIH-3T3 fibroblast cytotoxicity, dose response, cytotoxicity control, cell-based, fluorescence, Alamar Blue, secondary assay (AID 2327); assay type: functional;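 also: NIH-3T3 mouse fibroblasts cultured with fluconazole at 8 µg/mL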
[5] = C. albicans growth with fluconazole, confirmation, fluorescence, retest (AID 2467); assay type: functional, cell-based
[6] = cells; assay type: functional
[7] = cytotoxicity toward NIH3T3 fibroblasts, dose response, counter-screen, cell-based, ATP luminescence, mouse fibroblasts (AID 2010); assay type: functional;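 also: cells exposed to compound for about 90 hours before reading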
[8] = microbe, parasite or virus in culture; assay type: functional; conditions: Mycobacterium tuberculosis
[9] = inhibitors of intracellular T. cruzi replication, confirmation, NIH3T3 host cells, beta-gal luminescence (AID 2044); assay type: functional, cell-based;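 also: intracellular parasites grown in NIH/3T3 mouse fibroblasts as host cells; luminescent beta-galactosidase reporter signal from transgenic T. cruzi replicating inside host cells; inhibitors lower the luminescence signal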
[10] = molecular target: T1, Protein skinhead-1 (Caenorhabditis elegans, UniProt P34707); assay type: functional
T1 sequence (P34707 whole entry): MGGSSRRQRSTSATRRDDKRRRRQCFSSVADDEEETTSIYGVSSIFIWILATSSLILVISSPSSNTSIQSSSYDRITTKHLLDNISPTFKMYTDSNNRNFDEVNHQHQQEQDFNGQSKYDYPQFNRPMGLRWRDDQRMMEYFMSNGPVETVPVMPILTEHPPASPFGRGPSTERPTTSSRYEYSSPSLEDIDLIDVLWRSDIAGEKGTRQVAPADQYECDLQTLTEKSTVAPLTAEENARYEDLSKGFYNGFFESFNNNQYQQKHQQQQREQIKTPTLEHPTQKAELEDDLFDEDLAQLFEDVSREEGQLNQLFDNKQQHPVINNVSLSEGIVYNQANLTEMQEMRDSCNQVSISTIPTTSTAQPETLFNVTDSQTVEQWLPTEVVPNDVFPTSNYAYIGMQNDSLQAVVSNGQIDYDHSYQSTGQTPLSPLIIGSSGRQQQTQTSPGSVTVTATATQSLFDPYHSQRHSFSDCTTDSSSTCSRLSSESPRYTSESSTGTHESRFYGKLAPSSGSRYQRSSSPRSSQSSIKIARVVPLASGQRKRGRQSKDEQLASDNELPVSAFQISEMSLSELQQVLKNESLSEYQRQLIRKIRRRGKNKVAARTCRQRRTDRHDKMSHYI

[11] = molecular target: Cytochrome P450 2C9 (Homo sapiens, UniProt P11712)
[12] = molecular target: T2, Replicative DNA helicase DnaB (Mycobacterium tuberculosis, UniProt P9WMR3); test: DnaB intein splicing inhibitors, dose response, biochemical, cell-free fluorescence (AID 449749); assay type: functional
T2 sequence (P9WMR3 whole entry): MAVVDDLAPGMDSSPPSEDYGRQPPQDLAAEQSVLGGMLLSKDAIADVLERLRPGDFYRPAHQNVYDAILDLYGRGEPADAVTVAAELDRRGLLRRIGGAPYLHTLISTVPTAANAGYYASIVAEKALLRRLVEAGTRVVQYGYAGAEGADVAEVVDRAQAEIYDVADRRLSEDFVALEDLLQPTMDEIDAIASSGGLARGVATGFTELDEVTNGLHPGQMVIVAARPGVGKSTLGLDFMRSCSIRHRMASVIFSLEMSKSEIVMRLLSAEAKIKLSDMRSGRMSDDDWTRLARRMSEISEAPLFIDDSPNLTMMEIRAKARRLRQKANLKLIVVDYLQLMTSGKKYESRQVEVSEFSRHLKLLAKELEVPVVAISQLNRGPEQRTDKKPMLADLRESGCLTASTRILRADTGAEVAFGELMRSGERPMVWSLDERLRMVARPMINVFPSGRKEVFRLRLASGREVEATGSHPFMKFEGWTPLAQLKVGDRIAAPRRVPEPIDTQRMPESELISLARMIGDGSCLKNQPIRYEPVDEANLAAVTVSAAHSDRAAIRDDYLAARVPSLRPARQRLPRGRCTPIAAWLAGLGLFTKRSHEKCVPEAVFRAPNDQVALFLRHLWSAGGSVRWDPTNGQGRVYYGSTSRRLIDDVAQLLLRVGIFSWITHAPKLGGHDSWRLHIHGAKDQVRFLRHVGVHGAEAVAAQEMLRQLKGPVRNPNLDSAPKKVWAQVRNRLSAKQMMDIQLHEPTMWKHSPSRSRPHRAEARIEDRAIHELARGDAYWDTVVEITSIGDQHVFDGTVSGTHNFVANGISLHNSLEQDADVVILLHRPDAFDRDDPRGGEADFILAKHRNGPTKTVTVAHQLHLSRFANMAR

[13] = molecular target: T3, Protein RecA (Mycobacterium tuberculosis, UniProt P9WHJ3); test: Fluorescence Cell-Free Homogeneous Dose Retest to Identify Inhibitors of RecA-Intein Splicing Activity. [Related pubchem assays (depositor defined):AID2097, AID2223, AID489010, AID492950]; assay type: functional
T3 sequence (P9WHJ3 whole entry): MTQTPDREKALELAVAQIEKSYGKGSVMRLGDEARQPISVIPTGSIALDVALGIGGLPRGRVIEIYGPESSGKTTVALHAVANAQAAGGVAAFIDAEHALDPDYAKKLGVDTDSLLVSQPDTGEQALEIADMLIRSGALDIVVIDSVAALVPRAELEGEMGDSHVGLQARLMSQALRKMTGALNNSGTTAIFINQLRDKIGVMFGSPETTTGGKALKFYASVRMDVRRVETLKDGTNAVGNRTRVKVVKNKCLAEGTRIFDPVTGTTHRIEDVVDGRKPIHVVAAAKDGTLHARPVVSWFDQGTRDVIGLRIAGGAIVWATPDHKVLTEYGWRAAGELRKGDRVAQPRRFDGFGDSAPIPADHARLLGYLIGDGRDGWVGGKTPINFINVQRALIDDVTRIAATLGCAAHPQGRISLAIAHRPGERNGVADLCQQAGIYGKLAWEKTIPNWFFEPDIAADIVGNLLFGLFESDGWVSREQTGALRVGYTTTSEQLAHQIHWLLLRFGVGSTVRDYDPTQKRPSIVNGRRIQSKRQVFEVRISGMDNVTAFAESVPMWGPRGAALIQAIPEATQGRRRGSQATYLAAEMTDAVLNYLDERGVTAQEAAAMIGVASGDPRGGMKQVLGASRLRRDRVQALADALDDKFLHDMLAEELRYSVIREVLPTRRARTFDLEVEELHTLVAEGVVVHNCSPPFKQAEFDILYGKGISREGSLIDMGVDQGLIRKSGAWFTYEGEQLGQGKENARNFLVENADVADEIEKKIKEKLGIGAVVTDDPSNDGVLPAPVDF

[14] = Shn3 3'UTR reporter inhibitors, dose response, cell-based, Clone20 osteoblasts, firefly luciferase, cherry-picked (AID 624132); assay type: functional;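 also: firefly luciferase luminescence from reporter carrying the Shn3 3'UTR in osteoblasts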
[15] = HepG2 cell cytotoxicity, dose response, cytotoxicity control for Shn3 inhibitor project, CellTiter-Glo, cherry-picked (AID 624134); assay type: functional, cell-based
[16] = tested on: Streptococcus; test: Group A Streptococcus viability loss, dose response, counter-screen for streptokinase expression inhibitor project, luminescence, BacTiterGlo (AID 1915); assay type: functional, organism-based;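 also: potency for reduction of bacterial viability or growth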
[17] = tested on: Streptococcus sp. 'group A'; test: growth inhibition of control SK(-) GAS strain, dose response, counter-screen for streptokinase expression inhibitor project, luminescence, kanamycin, BacTiterGlo, confirmation (AID 1900); assay type: functional, organism-based
[18] = molecular target: T4, Streptokinase A (Streptococcus pyogenes serotype M1, UniProt P10520); test: S. pyogenes streptokinase expression inhibitors, potency, dose response, plasminogen activation absorbance, OD405 (AID 1914); assay type: functional, Streptococcus pyogenes M1 GAS;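 also: secreted streptokinase activity via plasminogen activation per viability signal from cell pellet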
T4 sequence (P10520 whole entry): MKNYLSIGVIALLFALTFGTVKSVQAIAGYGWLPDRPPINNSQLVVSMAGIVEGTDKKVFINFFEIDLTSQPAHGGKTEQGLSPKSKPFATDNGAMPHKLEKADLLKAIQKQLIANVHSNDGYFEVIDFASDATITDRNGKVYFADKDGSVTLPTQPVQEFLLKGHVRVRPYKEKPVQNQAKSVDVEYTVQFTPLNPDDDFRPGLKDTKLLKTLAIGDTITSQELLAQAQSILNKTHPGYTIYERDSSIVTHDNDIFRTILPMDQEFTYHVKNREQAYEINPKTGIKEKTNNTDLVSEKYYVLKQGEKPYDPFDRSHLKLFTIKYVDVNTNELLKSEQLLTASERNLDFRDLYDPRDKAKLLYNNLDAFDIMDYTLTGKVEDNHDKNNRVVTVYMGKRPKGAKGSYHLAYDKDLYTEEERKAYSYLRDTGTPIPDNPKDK

[19] = HEp-2 cell cytotoxicity, dose response, cytotoxicity control for RSV inhibitor project, HTS (AID 2410); assay type: functional; conditions: human respiratory syncytial virus

Chain of Cytochrome P450 2D6 (P10635 whole entry): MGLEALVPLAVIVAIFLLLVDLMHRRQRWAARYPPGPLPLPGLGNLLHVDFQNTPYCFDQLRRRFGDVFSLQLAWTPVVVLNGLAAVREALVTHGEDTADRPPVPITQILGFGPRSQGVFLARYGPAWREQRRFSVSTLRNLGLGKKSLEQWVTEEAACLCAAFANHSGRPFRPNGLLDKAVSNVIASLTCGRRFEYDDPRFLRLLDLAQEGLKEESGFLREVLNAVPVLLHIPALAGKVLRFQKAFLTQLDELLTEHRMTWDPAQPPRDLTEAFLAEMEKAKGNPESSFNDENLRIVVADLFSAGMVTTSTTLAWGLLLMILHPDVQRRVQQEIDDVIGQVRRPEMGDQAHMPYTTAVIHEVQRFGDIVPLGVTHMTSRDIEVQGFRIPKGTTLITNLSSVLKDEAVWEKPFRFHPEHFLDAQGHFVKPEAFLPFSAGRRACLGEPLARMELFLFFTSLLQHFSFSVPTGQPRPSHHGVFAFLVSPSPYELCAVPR
Chain of Cytochrome P450 3A4 (P08684 whole entry): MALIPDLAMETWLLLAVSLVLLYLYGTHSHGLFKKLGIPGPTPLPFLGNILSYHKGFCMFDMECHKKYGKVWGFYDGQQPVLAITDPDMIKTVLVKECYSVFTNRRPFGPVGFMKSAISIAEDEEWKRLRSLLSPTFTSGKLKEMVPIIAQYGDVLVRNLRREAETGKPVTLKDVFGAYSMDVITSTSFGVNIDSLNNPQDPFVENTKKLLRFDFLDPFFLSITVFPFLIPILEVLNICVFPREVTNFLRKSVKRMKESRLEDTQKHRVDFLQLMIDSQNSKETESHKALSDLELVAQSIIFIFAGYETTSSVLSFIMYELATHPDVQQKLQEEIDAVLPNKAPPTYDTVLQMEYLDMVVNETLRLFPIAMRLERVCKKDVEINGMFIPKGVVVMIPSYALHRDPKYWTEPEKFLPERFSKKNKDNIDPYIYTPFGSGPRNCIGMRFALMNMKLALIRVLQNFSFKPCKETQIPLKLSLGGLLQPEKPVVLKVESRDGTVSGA
Chain of Cytochrome P450 2C19 (P33261 whole entry): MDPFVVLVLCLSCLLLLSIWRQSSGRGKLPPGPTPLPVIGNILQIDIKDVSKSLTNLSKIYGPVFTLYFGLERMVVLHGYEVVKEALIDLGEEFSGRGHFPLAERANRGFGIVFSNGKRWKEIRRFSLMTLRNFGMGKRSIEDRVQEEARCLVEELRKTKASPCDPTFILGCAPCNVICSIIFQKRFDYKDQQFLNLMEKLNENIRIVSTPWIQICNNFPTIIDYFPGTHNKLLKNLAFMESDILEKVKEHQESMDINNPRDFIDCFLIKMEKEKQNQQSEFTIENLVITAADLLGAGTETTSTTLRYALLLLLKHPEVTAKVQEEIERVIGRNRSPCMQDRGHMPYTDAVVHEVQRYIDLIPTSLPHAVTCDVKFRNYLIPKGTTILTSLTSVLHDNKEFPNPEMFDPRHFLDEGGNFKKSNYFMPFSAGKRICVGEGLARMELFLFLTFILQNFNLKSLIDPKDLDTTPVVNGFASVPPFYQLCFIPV
Chain of Cytochrome P450 2C9 (P11712 whole entry): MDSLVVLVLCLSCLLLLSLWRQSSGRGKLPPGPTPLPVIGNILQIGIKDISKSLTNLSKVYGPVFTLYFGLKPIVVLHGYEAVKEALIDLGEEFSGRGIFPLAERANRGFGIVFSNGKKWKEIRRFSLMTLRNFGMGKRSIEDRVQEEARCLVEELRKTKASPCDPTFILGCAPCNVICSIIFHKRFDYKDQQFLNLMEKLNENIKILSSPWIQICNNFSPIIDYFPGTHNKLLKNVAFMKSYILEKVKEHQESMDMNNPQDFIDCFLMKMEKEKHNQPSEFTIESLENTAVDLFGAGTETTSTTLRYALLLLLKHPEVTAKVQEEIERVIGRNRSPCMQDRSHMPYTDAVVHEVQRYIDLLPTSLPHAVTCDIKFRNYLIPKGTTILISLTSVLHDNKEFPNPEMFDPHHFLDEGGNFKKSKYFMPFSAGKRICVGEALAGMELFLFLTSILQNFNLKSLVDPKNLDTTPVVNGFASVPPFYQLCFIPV

CC(C)C(CCNC(=O)CC(Cc1ccccc1)c1ccco1)c1ccco1 (stereo not given)
AC50 [1]: 0.631 µM (inconclusive) | AC50 [2]: 39.8 µM (inconclusive) | AC50 [3]: 5.62 µM (inconclusive)

Fc1ccc2c(c1)C(c1ccncc1)=NNC(c1cccnc1)=N2
EC50 [4]: > 160 µM (inactive) | EC50 [5]: 2.26 µM (active)

CCOC(=O)Nc1cccc(OCC(=O)Nc2ccccc2OC)c1
IC50 [6]: > 50 µM (active)

c1ccc(CC2CCN(C3=Nc4cccc5cccc3c45)CC2)cc1
EC50 [4]: 73.9 µM (active) | EC50 [7]: > 30 µM (not active) | EC50 [5]: 4.58 µM (active) | CC50 [8]: > 40 µM (active) | EC50 [9]: 0.935 µM (active)

Cc1cc(C)c2ccc3c(C)c(C)[nH]c3c2n1
IC50 [10]: < 3.13 µM (active)

Clc1ccc(-c2csc(N3CCSCC3)n2)cc1
IC50 [10]: > 100 µM (inactive)

CNc1ncnc2ccc(-c3ccccc3OC)cc12
AC50 [1]: 31.6 µM (inconclusive) | AC50 [3]: 25.1 µM (inconclusive)

CCCn1cnc2c(SCc3ccc(Cl)cc3)nc(N)nc21
AC50 [2]: 6.31 µM (inconclusive) | AC50 [11]: 6.31 µM (inconclusive) | AC50 [3]: 3.16 µM (inconclusive)

Cc1cnc(CNc2nc(-c3ccoc3)nc3ccccc23)cn1
AC50 [3]: 20 µM (inconclusive)

Cc1n[nH]c2c1C(c1ccc(OC(=O)c3ccco3)cc1)C(C#N)=C(N)O2 (stereo not given)
AC50 [12]: 9.43 µM (active) | EC50 [13]: 3.62 µM (active) | IC50 [6]: 35.2 µM (active)

Cc1nc2ccccc2cc1OCc1ccccc1
EC50 [4]: > 160 µM (inactive) | EC50 [5]: 3.26 µM (active)

Clc1ccc(-c2cc(CSc3cccc(Cl)c3)on2)cc1
IC50 [10]: 59.2 µM (inactive)

COc1cccc(Cn2c(=O)c(-c3cccs3)nc3cncnc32)c1
AC50 [3]: 6.31 µM (inconclusive)

COC(=O)C1=C(CN2CCSCC2)NC(=O)NC1c1cc(C)ccc1C (stereo not given)
IC50 [10]: > 100 µM (inactive)

CC(C)(C)/C(O)=C/c1nc2ccccc2oc1=O
IC50 [6]: 3.06 µM (active)

CSc1cccc(NC(=O)Nc2ccc(Cl)cc2)c1
AC50 [2]: 14.1 µM (inconclusive) | AC50 [3]: 3.55 µM (inconclusive)

CC(C)COc1ccc(-c2nnc(-c3ccco3)o2)cc1
IC50 [10]: > 100 µM (inactive)

CCOC(=O)CN(C(=O)CNC(=O)c1cccs1)C(C(=O)NC1CCCCC1)c1cccs1 (stereo not given)
IC50 [10]: > 100 µM (inactive)

CCOC(=O)C(Cc1cc(C(C)=O)ccc1OCC)C(=O)OCC
IC50 [10]: > 100 µM (inactive)

O=C1c2ccccc2C(=O)N1CCCSc1ccccc1
AC50 [3]: 3.16 µM (inconclusive)

Cc1ccc(S(=O)(=O)N2CCC3(CC2)OCCN3S(=O)(=O)c2c(C)cc(C)cc2C)cc1
AC50 [14]: 6.81 µM (active) | AC50 [15]: 56.1 µM (active)

COc1ccc(N(CC(=O)NC2CCCCC2)C(=O)CNC(=O)c2cccs2)cc1
IC50 [10]: > 100 µM (inactive)

O=C(NCC1CC1)c1ccc(-c2cn[nH]c2)c2ccoc12
IC50 [10]: 100 µM (inactive)

CN1c2ccsc2/C(=N/Nc2ccccc2)CS1(=O)=O
EC50 [16]: 16.1 µM (active) | EC50 [17]: 2.34 µM (active) | EC50 [18]: 4.12 µM (active) | IC50 [6]: 37 µM (active) | CC50 [19]: > 50 µM (active)

CCOc1ccc(NC(=O)CCC(=O)N/N=C/c2ccc3c(c2)OCO3)cc1
EC50 [4]: > 150 µM (inactive) | EC50 [5]: > 38 µM (not active)
